{"source": "ChEMBL document CHEMBL5260799", "about": "“Pterocarpan scaffold: A natural lead molecule with diverse pharmacological properties” (Eur J Med Chem, 2017)", "key": {"[1]": {"test_system": "RAW264.7", "test": "Antiinflammatory activity in mouse RAW264.7 cells assessed as inhibition of LPS-induced NO production at 50 uM measured after 24 hrs by Griess method", "format": "functional, cell-based", "conditions": "RAW264.7, 24 h"}, "[2]": {"test_system": "K562", "test": "Cytotoxicity activity against human K562 cells assessed as reduction in cell viability […] measured after 72 hrs by MTT assay", "format": "functional, cell-based", "conditions": "K562, 72 h"}, "[3]": {"test": "Cytotoxicity activity against human Lucena 1 cells assessed as reduction in cell viability […] measured after 72 hrs by MTT assay", "format": "functional, cell-based", "conditions": "Lucena 1, 72 h"}, "[4]": {"test_system": "Plasmodium falciparum", "test": "Antiplasmodial activity against Plasmodium falciparum K1 assessed as reduction in parasite growth by fluorescence based assay", "format": "functional, organism-based"}, "[5]": {"test_system": "Mycobacterium tuberculosis", "test": "Antimycobacterial activity against Mycobacterium tuberculosis H37Rv assessed as inhibition of bacterial growth by Microplate alamar blue assay", "format": "functional, organism-based"}, "[6]": {"test_system": "Staphylococcus aureus", "test": "Antibacterial activity against methicillin-resitant Staphylococcus aureus N1 assessed as reduction in bacterial growth by microbroth dilution method", "format": "functional"}, "[7]": {"test_system": "HL-60", "test": "Antiproliferative activity against human HL-60 cells assessed as reduction in cell viability at 12.5 ug/ml by tryphan blue staining assay", "format": "functional", "conditions": "dose 12.5 µg/ml"}, "[8]": {"species_on_record": "Mus musculus", "test": "Reduction in hepatic steatosis in HFD-induced C57BL/6J mouse model assessed as reduction in serum LDL level […]", "format": "functional, organism-based"}, "[9]": {"target": "Neuraminidase (Influenza A virus, UniProt B4URF0)", "sequence (B4URF0 whole entry)": "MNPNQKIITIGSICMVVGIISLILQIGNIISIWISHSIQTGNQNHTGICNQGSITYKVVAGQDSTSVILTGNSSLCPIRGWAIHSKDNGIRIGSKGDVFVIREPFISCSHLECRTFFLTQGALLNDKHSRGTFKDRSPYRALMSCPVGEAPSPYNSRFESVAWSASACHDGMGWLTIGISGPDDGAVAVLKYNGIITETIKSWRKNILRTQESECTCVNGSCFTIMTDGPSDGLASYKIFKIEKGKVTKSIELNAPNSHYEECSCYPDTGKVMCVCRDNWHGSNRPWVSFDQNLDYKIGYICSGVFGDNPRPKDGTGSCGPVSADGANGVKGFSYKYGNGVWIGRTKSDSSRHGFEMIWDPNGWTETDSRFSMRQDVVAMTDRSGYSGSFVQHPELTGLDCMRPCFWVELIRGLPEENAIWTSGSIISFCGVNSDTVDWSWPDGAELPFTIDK", "test": "Inhibition of Influenza A virus H5N1 neuraminidase"}, "[10]": {"test_system": "CCRF-CEM", "test": "Cytotoxicity against human CCRF-CEM cells assessed as reduction in cell viability incubated for 72 hrs by MTT assay", "format": "functional, cell-based"}, "[11]": {"test": "Inhibition of melanin in human melanocyte", "format": "functional, cell-based"}, "[12]": {"test_system": "Plasmodium falciparum", "test": "Antiplasmodial activity against Plasmodium falciparum D6 assessed as reduction in plasmodial growth after 48 hrs by fluorescence based analysis", "format": "functional, organism-based", "conditions": "D6, 48 h"}, "[13]": {"test_system": "HL-60", "test": "Antiproliferative activity against human HL-60 cells assessed as reduction in cell viability at 1.25 ug/ml by tryphan blue staining assay", "format": "functional", "conditions": "dose 1.25 µg/ml"}, "[14]": {"test_system": "HL-60", "test": "Antiproliferative activity against human HL-60 cells assessed as reduction in cell viability at 2.5 ug/ml by tryphan blue staining assay", "format": "functional", "conditions": "dose 2.5 µg/ml"}, "[15]": {"test_system": "Jurkat", "test": "Antiproliferative activity against human Jurkat cells assessed as reduction in cell proliferation measured after 24 hrs by MTT assay", "format": "functional, cell-based"}, "[16]": {"test_system": "MOLT-4", "test": "Antiproliferative activity against human MOLT-4 cells assessed as reduction in cell proliferation measured after 24 hrs by MTT assay", "format": "functional, cell-based", "conditions": "MOLT-4, 24 h"}, "[17]": {"test_system": "HL-60", "test": "Antiproliferative activity against human HL-60 cells assessed as reduction in cell proliferation measured after 36 hrs by MTT assay", "format": "functional, cell-based", "conditions": "HL-60, 36 h"}, "[18]": {"test_system": "K562", "test": "Antiproliferative activity against human K562 cells assessed as reduction in cell proliferation measured after 36 hrs by MTT assay", "format": "functional, cell-based", "conditions": "K562, 36 h"}, "[19]": {"test": "Antiproliferative activity against human PBMC cells assessed as reduction in cell viability at 10 microg/ml measured after 72 hrs by MTT assay", "format": "toxicity, cell-based", "conditions": "at 10 µg/mL"}, "[20]": {"test_system": "MCF7", "test": "Antiproliferative activity against human MCF7 cells assessed as growth inhibition measured after 48 hrs by CellTiter-Blue assay", "format": "functional, cell-based", "conditions": "MCF7, 48 h"}, "[21]": {"test_system": "Staphylococcus aureus", "test": "Antibacterial activity against Staphylococcus aureus ATCC 25923 assessed as bacterial growth inhibition by broth dilution method", "format": "functional, organism-based"}, "[22]": {"test_system": "Staphylococcus aureus", "test": "Antibacterial activity against methicillin-resistant Staphylococcus aureus ATCC 25923 assessed as bacterial growth inhibition by broth dilution method", "format": "functional, organism-based"}, "[23]": {"test_system": "MCF7", "test": "Antiproliferative activity against human MCF7 cells assessed as inhibition of cell proliferation incubated for 72 hrs by MTT assay", "format": "functional, cell-based", "conditions": "MCF7, 72 h"}, "[24]": {"test_system": "BMDC", "test": "Anti-inflammatory activity against LPS-induced C57BL/6 mouse BMDC cells assessed as inhibition of IL-12 production at 25 uM by ELISA method", "format": "functional", "design": "scale not given: the % may be the effect or the level left"}, "[25]": {"test_system": "A549", "test": "Cytotoxicity against human A549 cells assessed as reduction in cell viability by SRB assay", "format": "functional, cell-based"}, "[26]": {"test_system": "Staphylococcus aureus", "test": "Antibacterial activity against methicillin-resistant Staphylococcus aureus assessed as bacterial growth inhibition", "format": "functional, organism-based"}, "[27]": {"test_system": "A2780", "test": "Antiproliferative activity against human A2780 cells assessed as reduction in cell viability incubated for 96 hrs by MTT assay", "format": "functional, cell-based", "conditions": "A2780, 96 h"}, "[28]": {"test_system": "HeLa", "test": "Cytotoxicity against human HeLa cells assessed as reduction in cell viability by MTT assay", "format": "functional, cell-based"}, "[29]": {"test_system": "MDA-MB-231", "test": "Cytotoxicity against human MDA-MB-231 assessed as reduction in cell viability by MTT assay", "format": "functional, cell-based"}, "[30]": {"test": "Antioxidant activity assessed as DPPH radical scavenging activity incubated for 20 mins by spectrometry method", "format": "functional"}}}
{"smiles": "CC/C=C/OC[C@H]1O[C@H](Oc2ccc3c(c2)OC[C@H]2c4ccc(OC)c(OC)c4O[C@@H]32)[C@H](O)[C@@H](O)[C@@H]1O", "values": [{"measurement": "EC50", "setting": "[1]", "value": 19.2, "unit": "µM"}]}
{"smiles": "O=C1C2=C(C(=O)c3ccccc31)[C@H]1Oc3cc(OCc4ccccc4)c(OCc4ccccc4)cc3[C@H]1CO2", "values": [{"measurement": "IC50", "setting": "[2]", "value": 3.46, "unit": "µM"}, {"measurement": "IC50", "setting": "[3]", "value": 3.64, "unit": "µM"}]}
{"smiles": "COc1ccc2c(c1CC=C(C)C)O[C@H]1c3cc(CC=C(C)C)c(O)cc3OC[C@@]21O", "note": "[ERYSTAGALLIN A]", "values": [{"measurement": "IC50", "setting": "[4]", "value": 3.8, "unit": "µg/mL"}, {"measurement": "IC50", "setting": "[5]", "value": 12.5, "unit": "µg/mL"}, {"measurement": "MIC", "setting": "[6]", "value": 0.78, "unit": "µg/mL"}]}
{"smiles": "COc1ccc2c(c1)O[C@@H]1c3ccc(O)c(O)c3OC[C@H]21", "values": [{"measurement": "Activity", "setting": "[7]", "value": 72.1, "unit": "%"}]}
{"smiles": "C=C(C)[C@@H]1Cc2cc3c(cc2O1)OC[C@@]1(O)c2ccc(O)cc2O[C@@H]31", "note": "[GLYCEOLLIN III]", "values": [{"measurement": "IC50", "setting": "[8]", "value": 45, "unit": "µM"}]}
{"smiles": "O=c1oc2cc(O)ccc2c2oc3cc(O)ccc3c12", "note": "[COUMESTROL]", "values": [{"measurement": "IC50", "setting": "[9]", "value": 37.8, "unit": "µM"}, {"measurement": "IC50", "setting": "[8]", "value": 0.9, "unit": "µM"}]}
{"smiles": "CC(C)=CCc1cc2c(cc1O)OC1c3ccc(O)cc3OCC21", "note": "(centres undefined)", "values": [{"measurement": "IC50", "setting": "[10]", "value": 3.73, "unit": "µM"}]}
{"smiles": "COc1ccc2c(c1OC)O[C@H]1c3ccc(O[C@H]4O[C@H](COC(C)=O)[C@@H](O)[C@H](O)[C@H]4O)cc3OC[C@@H]21", "values": [{"measurement": "EC50", "setting": "[1]", "value": 28.7, "unit": "µM"}]}
{"smiles": "COc1ccc2c(c1)OCc1c-2oc2c3c(c(O)cc12)OC(C)(C)C=C3", "note": "[LESPEFLORIN H2]", "values": [{"measurement": "IC50", "setting": "[11]", "value": 1.48, "unit": "µM"}]}
{"smiles": "COc1ccc2c(c1CC=C(C)C)O[C@H]1c3ccc(OC(C)=O)cc3OC[C@@H]21", "values": [{"measurement": "IC50", "setting": "[12]", "value": 34.8, "unit": "µg/mL"}]}
{"smiles": "COc1ccc2c(c1)O[C@@H]1c3cc(OC)c(OC)cc3OC[C@H]21", "values": [{"measurement": "Activity", "setting": "[13]", "value": 34.4, "unit": "%"}, {"measurement": "Activity", "setting": "[14]", "value": 42.6, "unit": "%"}, {"measurement": "IC50", "setting": "[15]", "value": "> 10", "unit": "µg/mL"}, {"measurement": "IC50", "setting": "[16]", "value": 45.9, "unit": "µg/mL"}, {"measurement": "IC50", "setting": "[17]", "value": 2.5, "unit": "µg/mL"}, {"measurement": "IC50", "setting": "[18]", "value": 2.8, "unit": "µg/mL"}, {"measurement": "inhibition at 72 h, 10 microg/ml", "setting": "[19]", "value": 19, "unit": "%"}, {"measurement": "IC50", "setting": "[20]", "value": 8, "unit": "µM"}]}
{"smiles": "COc1ccc2c(c1CC=C(C)C)O[C@H]1c3ccc(C)cc3OC[C@@]21O", "values": [{"measurement": "IC50", "setting": "[21]", "value": 64, "unit": "µg/mL"}, {"measurement": "IC50", "setting": "[22]", "value": 64, "unit": "µg/mL"}]}
{"smiles": "COc1cc2c(cc1O)C1COC3C(=O)c4ccccc4C(=O)C3C1O2", "note": "(centres undefined)", "values": [{"measurement": "IC50", "setting": "[23]", "value": 7.8, "unit": "µM"}]}
{"smiles": "COc1ccc2c(c1)O[C@@H]1c3ccc(O)cc3OC[C@H]21", "values": [{"measurement": "Activity", "setting": "[7]", "value": 57.4, "unit": "%"}]}
{"smiles": "COc1ccc2c(c1OC)OC1c3ccc(O[C@H]4O[C@H](CO)[C@@H](O)[C@H](O)[C@H]4O)cc3OCC21", "note": "(some centres undefined)", "values": [{"measurement": "Activity", "setting": "[24]", "value": 10, "unit": "%"}]}
{"smiles": "CC1(C)Oc2cc3c(cc2CC1O)[C@@H]1Oc2cc(O)ccc2[C@@H]1CO3", "note": "(some centres undefined) [RAUTANDIOL A]", "values": [{"measurement": "IC50", "setting": "[25]", "value": "> 5", "unit": "µg/mL"}]}
{"smiles": "COc1ccc2c(c1)O[C@@H]1c3ccc(OC)cc3OC[C@H]21", "values": [{"measurement": "Activity", "setting": "[7]", "value": 52.5, "unit": "%"}]}
{"smiles": "O=C1c2ccccc2C(=O)C2C1OCC1c3cc(O)c(O)cc3OC12", "note": "(centres undefined)", "values": [{"measurement": "IC50", "setting": "[23]", "value": 115, "unit": "µM"}]}
{"smiles": "COc1cc2c(cc1CC=C(C)C)[C@@H]1Oc3cc(O)ccc3[C@@H]1CO2", "values": [{"measurement": "IC50", "setting": "[26]", "value": 6.25, "unit": "µg/mL"}]}
{"smiles": "C=C(C)[C@H]1Cc2cc3c(cc2O1)OC[C@@H]1c2ccc(OC)c(O)c2O[C@H]31", "values": [{"measurement": "IC50", "setting": "[27]", "value": 23.2, "unit": "µM"}]}
{"smiles": "COc1cc(Br)c2c(c1CC=C(C)C)O[C@H]1c3ccc(O)cc3OC[C@@H]21", "values": [{"measurement": "IC50", "setting": "[12]", "value": 12.9, "unit": "µg/mL"}]}
{"smiles": "COc1ccc2c(c1CC=C(C)C)O[C@H]1c3ccc(O)cc3OC[C@@]21OC", "note": "[ERYTHRIBYSSIN A]", "values": [{"measurement": "IC50", "setting": "[21]", "value": 64, "unit": "µg/mL"}, {"measurement": "IC50", "setting": "[22]", "value": 32, "unit": "µg/mL"}]}
{"smiles": "O=c1cccc2n1C[C@@H]1C[C@H]2CN(Cc2c(O)ccc3c2OC[C@H]2c4cc5c(cc4O[C@@H]32)OCO5)C1", "values": [{"measurement": "IC50", "setting": "[28]", "value": 24.3, "unit": "µM"}, {"measurement": "IC50", "setting": "[29]", "value": 48.9, "unit": "µM"}]}
{"smiles": "O=C1c2ccccc2C(=O)C2C1OCC1c3cc4c(cc3OC12)OCO4", "note": "(centres undefined)", "values": [{"measurement": "IC50", "setting": "[23]", "value": 29, "unit": "µM"}]}
{"smiles": "COc1c(O)cc2c(c1OC)O[C@H]1c3ccc(O)cc3OC[C@@H]21", "values": [{"measurement": "IC50", "setting": "[30]", "value": 3.8, "unit": "µM"}]}
